Results on 19 compounds are retold here after US20230233533A1, “COMPOSITIONS, METHODS OF TREATING AND PREVENTING FUNGAL INFECTIONS, AND METHODS OF INHIBITING PRP8 INTEIN EXPRESSION” (Health Research, Inc., priority 2020, published 2023).

The subject of data set [1] is C. neoformans H99 strain. Put plainly: Fungal susceptibility test, broth microdilution MIC. The data set is classed as cell-based, Cryptococcus neoformans. The note with it: Cryptococcus neoformans, H99STRAIN; C. neoformans H99, microbroth dilution; read-out: MIC H99. The procedure: Fungal susceptibility test—The fungal susceptibility test was carried out with a compound concentration series as described. […] The broth microdilution method was used to determine the compound MIC values against C. neoformans.
Fungal susceptibility test—The fungal susceptibility test was carried out with a compound concentration series as described. […] Microbes. Infect. […] The broth microdilution method was used to determine the compound MIC values against C. neoformans.

A short description of data set [2]: in vitro. The data set is classed as cell-based, human. The note with it: human, CC50 A549. The procedure:
Cytotoxicity—Cytotoxicity assays were carried out using human lung carcinoma cell line A549, as described (Chen et al., “Selective Inhibition of the West Nile Virus Methyltransferase by Nucleoside Analogs,” Antiviral Research 97(3):232-239 (2013), which is hereby incorporated by reference in its entirety). Briefly, the A549 cells (5×10^3) were incubated with/without compounds in a 96-well plate at 37° C. for 48 h. Cell viability was determined using the MTT assay (ATCC) as was described previously (Chen et al., “Selective Inhibition of the West Nile Virus Methyltransferase by Nucleoside Analogs,” Antiviral Research 97(3):232-239 (2013) and Brecher et al., “Identification and Characterization of Novel Broad-Spectrum Inhibitors of the Flavivirus Methyltransferase,” ACS Infectious Diseases 1(8):340-349 (2015), both of which are hereby incorporated by reference in their entirety). N=3.
Cytotoxicity—Cytotoxicity assays were carried out using human lung carcinoma cell line A549, as described. Chen et al., “Selective Inhibition of the West Nile Virus Methyltransferase by Nucleoside Analogs,” Antiviral Res. 97:232-9 (2013), which is hereby incorporated by reference in its entirety. Briefly, the A549 cells (5×10^3) were incubated with/without compounds in a 96-well plate at 37° C. for 48 h. Cell viability was determined using the MTT assay (ATCC) as was described previously (Chen et al., “Selective Inhibition of the West Nile Virus Methyltransferase by Nucleoside Analogs,” Antiviral Research 97(3):232-239 (2013) and Brecher et al., “Identification and Characterization of Novel Broad-Spectrum Inhibitors of the Flavivirus Methyltransferase,” ACS Infectious Diseases 1(8):340-349 (2015), both of which are hereby incorporated by reference in their entirety). N=3.

For data set [3], the target named is T1, Prp8 intein (Cryptococcus gattii, UniProt E6R027). Briefly: Split Cys-free (Cf) GFP-Prp8 intein splicing assay. The data set is classed as biochemical. To be noted: read-out: IC50 CfGFP-Prp8 (converted). On the procedure: (§1) The constructs for Cys-free (Cf) GFP-Prp8 and Cys-free nanoluciferase NnLuc-Prp8 were codon-optimized, synthesized, and cloned into the pET28a vector using the NcoI and XhoI sites by Gene Universal (Gene Universal, Newark Del.). […] The expression, refolding and purification of the CfGFP-Prp8 and NnLuc-Prp8 fusion proteins were carried out as described previously. […] Microbes. Infect.
T1 sequence (E6R027 entry or part of it): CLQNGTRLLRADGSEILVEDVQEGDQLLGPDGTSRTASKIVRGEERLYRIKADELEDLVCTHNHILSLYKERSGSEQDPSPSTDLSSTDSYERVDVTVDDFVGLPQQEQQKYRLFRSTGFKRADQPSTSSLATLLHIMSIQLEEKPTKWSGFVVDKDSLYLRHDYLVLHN
Split GFP-Prp8 and CJGFP-Prp8 intein splicing assays—Using black and clear bottom 96-well plates, the DPNB-treated, -refolded and -concentrated GFP-Prp8 or CfGFP-Prp8 fusion protein (0.5 μM) was incubated with compounds or Dimethylsulfoxide (DMSO) solvent control for 30 min at 25° C. in a 100 μl intein splicing buffer (20 mM Bis-tris propane, 0.5 M NaCl, 0.5 M arginine, 1 mM EDTA, and 0.05% CHAPS). Then 100 μl 2×TCEP was added to a final concentration of 20 μM. The reactions were incubated at 25° C. overnight. […] Two readings were taken, one prior to addition of TCEP (I0) and one after incubation overnight with TCEP (If). Fluorescence/luminescence differences (ΔFluorescence or ΔLuminescence) were defined as If−I0 for each well. […] DMSO control served as 100% splicing activity.

The target in data set [4] is T1, Prp8 intein. Put plainly: Split nanoluciferase NnLuc-Prp8 intein splicing assay. The data set is classed as biochemical. The procedure:
as §1
Split luciferase RLuc-Prp8 and NnLuc-Prp8 intein splicing assays—The split RLuc-Prp8 intein splicing assay was carried out and monitored using a Veritas luminometer, as described previously. […] Microbes. Infect. […] For NnLuc-Prp8 intein splicing assay, the NnLuc-prp8 is diluted in assay buffer (50 mM Tris, 0.1% BSA, 1 mM EDTA, pH 7.4) and 50 ul is added to each well in 96 well black plates. Test molecules or the solvent was added and incubated for 30 to 60 min. A splicing inducer TCEP (50 ul, 100 μM) is added and incubated for 24 h. Luciferase substrate (Furimazine, 25 ul 1:10,000 diluted) is added and luminescence is read using a luminescence reader. IC50 is calculated using Graphpad prism.

Molecules are shown by their SMILES. Converted amounts (≈) assume the structure as drawn. Where only a bound is given, the exact number is not on record here.

For `O=C(Nc1ccccc1F)c1nnsc1S(=O)(=O)c1ccc(Cl)cc1` [JMX872, 5-((4-Chlorophenyl)sulfonyl)-N-(2-fluorophenyl)-1,2,3-thiadiazole-4-carboxamide], the MIC in data set [1] is over 50 µM. This compound registered a CC50 at 48 h in data set [2] of 162 µM. Further, the results for the IC50 in data set [3] and in data set [4] were 28.3 µM and 31.8 µM, respectively.
The like results for `O=C(Nc1ccc(F)c(F)c1)c1nnsc1S(=O)(=O)c1ccc(Cl)cc1` [JMX876, 5-((4-Chlorophenyl)sulfonyl)-N-(3,4-difluorophenyl)-1,2,3-thiadiazole-4-carboxamide] were, in that order, 3.12 µM (≈ 1.3 µg/mL), 163 µM, 33.5 µM and 22 µM.
The like results for `Cc1ccc(NC(=O)c2nnsc2S(=O)(=O)c2ccc(Cl)cc2)cc1` [JMX1033, 5-((4-chlorophenyl)sulfonyl)-N-(p-tolyl)-1,2,3-thiadiazole-4-carboxamide] were, in that order, over 50 µM, 156 µM, 35.2 µM and 45.9 µM.
The like results for `Cc1ccc(NC(=O)c2nnsc2[S+]([O-])c2ccc(Cl)cc2)cc1` (stereo not shown) [JMX1033-2] were, in that order, over 50 µM, 74.6 µM, 47.3 µM and 3.8 µM.
In the case of `O=C(Nc1ccc(Br)cc1)c1nnsc1S(=O)(=O)c1ccc(Cl)cc1` [JMX1034, N-(4-Bromophenyl)-5-((4-chlorophenyl)sulfonyl)-1,2,3-thiadiazole-4-carboxamide], the MIC in data set [1] is over 50 µM. For the same compound, in data set [2], half-maximal cytotoxicity (CC50 at 48 h) was put at 84.8 µM. Besides, the IC50 in data set [3] was 33.1 µM; in data set [4], 15.4 µM.
For `O=C(Nc1ccccc1)c1nnsc1S(=O)(=O)c1ccc(Cl)cc1` [JMX1035, 5-((4-Chlorophenyl)sulfonyl)-N-phenyl-1,2,3-thiadiazole-4-carboxamide], the MIC in data set [1] came out at 6.25 µM (≈ 2.37 µg/mL). Besides, in data set [2], it took 84.1 µM to reach half-maximal cytotoxicity (CC50 at 48 h). Besides, the IC50 in data set [3] was 38.4 µM; in data set [4], 33.9 µM.
The like results for `O=C(Nc1cc(F)cc(Cl)c1)c1nnsc1S(=O)(=O)c1ccc(Cl)cc1` [JMX1036, N-(3-Chloro-5-fluorophenyl)-5-((4-chlorophenyl)sulfonyl)-1,2,3-thiadiazole-4-carboxamide] were, in that order, 1.56 µM (≈ 0.674 µg/mL), 70.9 µM, 32.9 µM and 21.4 µM.
The like results for `O=C(Nc1ccc(F)c(Cl)c1)c1nnsc1S(=O)(=O)c1ccc(Cl)cc1` [JMX1037, N-(3-Chloro-4-fluorophenyl)-5-((4-chlorophenyl)sulfonyl)-1,2,3-thiadiazole-4-carboxamide] were, in that order, 25 µM (≈ 10.8 µg/mL), 63.2 µM, 31.4 µM and 14.1 µM.
Turning to `O=C(Nc1cc(F)cc(F)c1)c1nnsc1S(=O)(=O)c1ccc(Cl)cc1` [JMX1038, 5-((4-Chlorophenyl)sulfonyl)-N-(3,5-difluorophenyl)-1,2,3-thiadiazole-4-carboxamide], the MIC in data set [1] was over 50 µM. Moreover, the midpoint of cytotoxicity in data set [2], the CC50 at 48 h, lay at 54.2 µM. The results for the IC50 in data set [3] and in data set [4] were 37.1 µM and 37.4 µM, respectively.
The like results for `O=C(Nc1cc(F)cc(C(F)(F)F)c1)c1nnsc1S(=O)(=O)c1ccc(Cl)cc1` [JMX1040, 5-((4-chlorophenyl)sulfonyl)-N-(3-fluoro-5-(trifluoromethyl)phenyl)-1,2,3-thiadiazole-4-carboxamide] were, in that order, 3.12 µM (≈ 1.45 µg/mL), 56.3 µM, 32.8 µM and 20.6 µM.
With `O=C(Nc1cc(C(F)(F)F)cc(C(F)(F)F)c1)c1nnsc1S(=O)(=O)c1ccc(Cl)cc1` [JMX1041, N-(3,5-Bis(trifluoromethyl)phenyl)-5-((4-chlorophenyl)sulfonyl)-1,2,3-thiadiazole-4-carboxamide], in data set [1], the MIC is over 50 µM. The same compound had a CC50 at 48 h in data set [2] of 66.7 µM. Moreover, the IC50 in data set [3] is 37.9 µM; in data set [4] it was 18.5 µM.
Take `O=C(Nc1ccc(C(F)(F)F)cc1Cl)c1nnsc1S(=O)(=O)c1ccc(Cl)cc1` [JMX1042, N-(2-Chloro-4-(trifluoromethyl)phenyl)-5-((4-chlorophenyl)sulfonyl)-1,2,3-thiadiazole-4-carboxamide]: the MIC in data set [1] is over 50 µM. The compound further displayed a CC50 at 48 h in data set [2] of 98.7 µM. Moreover, the figures for the IC50 in data set [3] and in data set [4] were 41.5 µM and 10.9 µM, respectively.
Take `O=C(Nc1ccc([N+](=O)[O-])cc1F)c1nnsc1S(=O)(=O)c1ccc(Cl)cc1` [JMX1043, 5-((4-Chlorophenyl)sulfonyl)-N-(2-fluoro-4-nitrophenyl)-1,2,3-thiadiazole-4-carboxamide]: the MIC in data set [1] was over 50 µM. In data set [2], this compound registered a CC50 at 48 h of 66.9 µM. Besides, the IC50 was 38.1 µM in data set [3] and 19.6 µM in data set [4].
Regarding `O=C(Nc1cc(F)c(F)c(F)c1)c1nnsc1S(=O)(=O)c1ccc(Cl)cc1` [JMX1044, 5-((4-Chlorophenyl)sulfonyl)-N-(3,4,5-trifluorophenyl)-1,2,3-thiadiazole-4-carboxamide], the MIC in data set [1] is over 50 µM. The compound further registered a CC50 at 48 h in data set [2] of 47.8 µM. Also, the IC50 in data set [3] was 31.8 µM; in data set [4], 16.3 µM.
The like results for `O=C(Nc1cc(F)c(F)c(F)c1)c1nnsc1[S+]([O-])c1ccc(Cl)cc1` (stereo not shown) [JMX1044-2, 5-((4-Chlorophenyl)sulfinyl)-N-(3,4,5-trifluorophenyl)-1,2,3-thiadiazole-4-carboxamide] were, in that order, over 50 µM, 47.5 µM, 26.9 µM and 4.4 µM.
As to `O=C(Nc1c(F)cc(F)cc1F)c1nnsc1S(=O)(=O)c1ccc(Cl)cc1` [JMX1045, 5-((4-Chlorophenyl)sulfonyl)-N-(2,4,6-trifluorophenyl)-1,2,3-thiadiazole-4-carboxamide], the MIC in data set [1] was over 50 µM. In data set [2], this compound had a CC50 at 48 h of 47.9 µM. Moreover, the values for the IC50 in data set [3] and in data set [4] were 34.3 µM and 15.9 µM, respectively.
The like results for `O=C(Nc1c(F)cc(F)cc1F)c1nnsc1[S+]([O-])c1ccc(Cl)cc1` (stereo not shown) [JMX1045-2, 5-((4-Chlorophenyl)sulfinyl)-N-(2,4,6-trifluorophenyl)-1,2,3-thiadiazole-4-carboxamide] were, in that order, 3.12 µM (≈ 1.3 µg/mL), 61 µM, 27.4 µM and 8.6 µM.
For the compound `O=C(Nc1ccc(Cl)c(F)c1)c1nnsc1S(=O)(=O)c1ccc(Cl)cc1` [JMX1046, N-(4-Chloro-3-fluorophenyl)-5-((4-chlorophenyl)sulfonyl)-1,2,3-thiadiazole-4-carboxamide], the MIC in data set [1] was over 50 µM. The compound also displayed a CC50 at 48 h in data set [2] of 145 µM. In addition, the IC50 was 34.1 µM in data set [3] and 20.1 µM in data set [4].
With `O=C(Nc1ccc(Cl)c(F)c1)c1nnsc1[S+]([O-])c1ccc(Cl)cc1` (stereo not shown) [JMX1046-2, N-(4-Chloro-3-fluorophenyl)-5-((4-chlorophenyl)sulfinyl)-1,2,3-thiadiazole-4-carboxamide], the MIC in data set [1] turned out to be 1.56 µM (≈ 0.649 µg/mL). The same compound registered a CC50 at 48 h in data set [2] of 149 µM. Besides, the IC50 in data set [3] is 32.2 µM; in data set [4], 7.5 µM.
